1 molecule from patent US11724998B2, “PXR agonists and uses thereof for gut barrier dysfunction treatment and prevention” (Albert Einstein College of Medicine, priority 2017, dated 2023) can be followed below.

The structures appear in SMILES notation. pEC50: −log10 of the molar value.

One assay has as its target T1, PXR (Homo sapiens, UniProt O75469).
T1 sequence (O75469 1-434): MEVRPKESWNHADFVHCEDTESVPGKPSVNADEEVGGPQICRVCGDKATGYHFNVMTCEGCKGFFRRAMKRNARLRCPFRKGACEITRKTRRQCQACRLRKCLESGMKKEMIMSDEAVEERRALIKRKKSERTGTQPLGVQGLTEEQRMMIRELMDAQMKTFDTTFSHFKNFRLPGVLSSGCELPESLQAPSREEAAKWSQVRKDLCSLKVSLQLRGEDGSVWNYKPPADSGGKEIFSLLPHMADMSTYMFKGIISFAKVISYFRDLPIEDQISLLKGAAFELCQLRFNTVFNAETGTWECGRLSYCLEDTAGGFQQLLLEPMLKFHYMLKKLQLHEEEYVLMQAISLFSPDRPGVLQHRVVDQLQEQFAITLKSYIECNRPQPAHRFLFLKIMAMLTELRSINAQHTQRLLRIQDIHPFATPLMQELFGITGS
The assay is described as follows: PXR activation (transactivation) luciferase assay in LS180 cells. The assay is classed as cell-based. The arrangement: co-transfecting full-length expressing human PXR plasmid (91) and p3A4 luciferase reporter (92) in LS180 or Caco-2 cells; expressed in transfected cells; host or cells: LS180. As to the method: FIG. 6A-6E. Activation and inhibition studies with different FKK compounds. (A) PXR activation, LS180 cells (upper), and PXR inhibition, LS180 cells, co-incubation with RIF (lower). (B) AhR activation, AZ-AHR cells (upper), and AhR inhibition, AZ-AHR cells, co-incubation with TCDD (lower). (C) GR activation, AZ-GR cells (upper), and VDR activation, IZ-VDRE cells (lower). (D) TR activation, PZ-GR cells (upper), and AR activation, AIZ-AR cells (lower). (E) Displacement of radiolabeled 9-cis-retinoic acid (RA) by FKK compounds.
Two molecules that were readily available (Ryan Scientific: FKK999 & BAS451) were purchased and tested in vitro for PXR activation using a HepG2 reporter assay. […] […]. […] In general, reporter cell lines are efficient ways to screen for PXR ligands (72). In the LS180 intestinal cell line, the PXR activation assay involves a transient transfection system using a specific PXR plasmid and reporter plasmid (CVmax % 11.2+2; CVmid % 10.8+0.1.4; Signal Window 6.2+1.1; Z′ factor 0.51+0.005).
All the synthesized compounds and intermediates were tested for their potential to activate PXR and/or AhR via luciferase assays. The PXR activation assays were performed by co-transfecting full-length expressing human PXR plasmid (91) and p3A4 luciferase reporter (92) in LS180 or Caco-2 cells. AhR activation conducted using stably co-transfected HepG2 reporter cells as previously described (93). […] With the exception of FKK6, there was no significant inhibition of TCDD-induced AhR activation. […] Independent verification of AhR activity of randomly selected compounds—FKK 5, 6 and 9—was performed in a separate laboratory (GHP). Nuclear receptor selectivity was assessed for FKK compounds for GR, ADR, TR and AR using cell-based luciferase assays previously described (93-102). There was no observed biologically significant (>2-fold) induction of nuclear receptor activity (FIG. 6C). RXR ligand displacement is only significant for FKK1 and FKK8 (FIG. 6D).

In another assay the target is T2, AhR (Homo sapiens, UniProt P35869).
T2 sequence (P35869 11-848): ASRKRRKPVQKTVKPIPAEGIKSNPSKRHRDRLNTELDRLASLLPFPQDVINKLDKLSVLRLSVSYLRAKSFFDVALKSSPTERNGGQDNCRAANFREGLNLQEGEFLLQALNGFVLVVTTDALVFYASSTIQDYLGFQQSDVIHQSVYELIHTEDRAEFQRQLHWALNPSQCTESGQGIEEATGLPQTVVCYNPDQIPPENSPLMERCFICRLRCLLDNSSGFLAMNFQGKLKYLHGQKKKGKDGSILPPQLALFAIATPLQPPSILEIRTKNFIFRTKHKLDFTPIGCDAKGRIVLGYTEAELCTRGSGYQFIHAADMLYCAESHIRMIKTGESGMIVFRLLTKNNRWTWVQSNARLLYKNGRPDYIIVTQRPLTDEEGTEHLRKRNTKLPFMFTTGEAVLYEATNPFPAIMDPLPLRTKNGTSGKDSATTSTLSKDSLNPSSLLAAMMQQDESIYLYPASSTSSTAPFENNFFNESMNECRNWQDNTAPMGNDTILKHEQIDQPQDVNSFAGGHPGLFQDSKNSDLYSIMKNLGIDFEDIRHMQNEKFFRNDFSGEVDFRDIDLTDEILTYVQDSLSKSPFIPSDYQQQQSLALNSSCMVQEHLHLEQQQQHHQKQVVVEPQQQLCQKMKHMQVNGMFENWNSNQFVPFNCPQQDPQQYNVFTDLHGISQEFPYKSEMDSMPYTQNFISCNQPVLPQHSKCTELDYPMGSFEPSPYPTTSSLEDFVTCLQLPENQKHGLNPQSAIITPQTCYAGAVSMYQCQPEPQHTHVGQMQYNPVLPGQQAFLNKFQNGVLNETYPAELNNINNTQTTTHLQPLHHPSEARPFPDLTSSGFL
The assay can be described thus: HTS nuclear receptor activation screen using LS180 cells (AhR). The assay is classed as cell-based. The settings on record: data not shown.

On to `O=C(c1ccncc1)c1cc2ccccc2n1S(=O)(=O)c1ccccc1` [FKK5], for which, at PXR, the pEC50 is 5.77. The Emax on PXR (read-out: Emax/Emax[rifampicin, positive control]) amounted to 128%. At AhR, the AhR activation result was “not AhR”.

Broadly, the pEC50 is −log10 of the EC50, conventionally taken in molar units. The low end stands for a large EC50, the high end for a small EC50.
